This experiment concerns the target mouse Trpa1 (Mus musculus, UniProt Q8BLA8). As to the kind of experiment: Ca2+ influx assay in HEK-293T cells transfected with mouse TRPA1. The experiment is classed as cell-based.

Sequence of mouse Trpa1 (Q8BLA8 whole entry): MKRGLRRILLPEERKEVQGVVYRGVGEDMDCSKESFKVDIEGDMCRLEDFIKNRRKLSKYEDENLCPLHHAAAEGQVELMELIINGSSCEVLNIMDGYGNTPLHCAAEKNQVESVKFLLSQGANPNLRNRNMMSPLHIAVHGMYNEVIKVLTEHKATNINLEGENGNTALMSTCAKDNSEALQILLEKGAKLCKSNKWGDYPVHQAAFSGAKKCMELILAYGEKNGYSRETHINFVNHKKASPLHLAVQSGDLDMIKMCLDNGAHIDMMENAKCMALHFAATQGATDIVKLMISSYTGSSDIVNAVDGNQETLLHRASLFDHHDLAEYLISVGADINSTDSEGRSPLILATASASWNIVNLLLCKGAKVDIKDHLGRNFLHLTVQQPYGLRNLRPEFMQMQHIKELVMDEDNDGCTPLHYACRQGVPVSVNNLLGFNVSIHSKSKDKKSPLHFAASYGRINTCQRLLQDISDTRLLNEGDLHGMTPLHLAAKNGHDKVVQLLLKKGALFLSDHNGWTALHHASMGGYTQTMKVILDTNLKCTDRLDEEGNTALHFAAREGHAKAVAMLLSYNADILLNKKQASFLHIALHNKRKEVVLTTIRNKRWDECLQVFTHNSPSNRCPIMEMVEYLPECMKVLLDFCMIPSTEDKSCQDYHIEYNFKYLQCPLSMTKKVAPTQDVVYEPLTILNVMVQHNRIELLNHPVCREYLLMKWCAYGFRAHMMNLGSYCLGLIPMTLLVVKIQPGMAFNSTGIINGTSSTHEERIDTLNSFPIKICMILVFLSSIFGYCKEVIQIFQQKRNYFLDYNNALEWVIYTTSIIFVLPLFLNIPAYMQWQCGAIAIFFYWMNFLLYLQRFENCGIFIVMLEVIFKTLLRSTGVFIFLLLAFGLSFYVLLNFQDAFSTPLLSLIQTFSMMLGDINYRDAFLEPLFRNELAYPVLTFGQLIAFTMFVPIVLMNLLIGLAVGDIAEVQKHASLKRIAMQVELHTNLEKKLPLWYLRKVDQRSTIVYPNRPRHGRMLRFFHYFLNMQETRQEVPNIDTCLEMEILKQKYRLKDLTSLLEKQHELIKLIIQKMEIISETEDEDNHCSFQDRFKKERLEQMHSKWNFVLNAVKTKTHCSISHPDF

For `O=Cc1c[nH]c2ccccc12` [IAld, Indole-3-carboxaldehyde], the “Ca2+ influx assay in HEK-293T cells transfected with mouse TRPA1” value is “Both indole and IAld also activated mouse Trpa1, but in a less potent manner”.

In the case of `c1ccc2[nH]ccc2c1` [Indole], the “Ca2+ influx assay in HEK-293T cells transfected with mouse TRPA1” value is “Both indole and IAld also activated mouse Trpa1, but in a less potent manner”.

The record behind these values is paper PMC7997396 (Cell host & microbe, 2020).
